Measured values taken from the kinase profiling compilation of Christmann-Franck et al. (2016).
Values belong to the compound of their own block, whether it stands above or below them.

What was measured:
Test in all cases: Caliper, Mobility shift assay off-chip
ABL2 (human) = ABL2 (human) (UniProt P42684)
CDK2 (human) = CDK2 (human) (UniProt P24941)
CDK5 CDK5R1 p25 (human) = CDK5 CDK5R1 p25 (human) (UniProt Q15078+Q00535)
CLK2 (human) = CLK2 (human) (UniProt P49760)
CSNK1G3 (human) = CSNK1G3 (human) (UniProt Q9Y6M4)
DYRK1A (human) = DYRK1A (human) (UniProt Q13627)
[1] = tested on: EGFR (human), P00533 [T790M/L858R]
FGFR1 (human) = FGFR1 (human) (UniProt P11362)
Sequence of FGFR1 (human) (P11362 whole entry, looked up): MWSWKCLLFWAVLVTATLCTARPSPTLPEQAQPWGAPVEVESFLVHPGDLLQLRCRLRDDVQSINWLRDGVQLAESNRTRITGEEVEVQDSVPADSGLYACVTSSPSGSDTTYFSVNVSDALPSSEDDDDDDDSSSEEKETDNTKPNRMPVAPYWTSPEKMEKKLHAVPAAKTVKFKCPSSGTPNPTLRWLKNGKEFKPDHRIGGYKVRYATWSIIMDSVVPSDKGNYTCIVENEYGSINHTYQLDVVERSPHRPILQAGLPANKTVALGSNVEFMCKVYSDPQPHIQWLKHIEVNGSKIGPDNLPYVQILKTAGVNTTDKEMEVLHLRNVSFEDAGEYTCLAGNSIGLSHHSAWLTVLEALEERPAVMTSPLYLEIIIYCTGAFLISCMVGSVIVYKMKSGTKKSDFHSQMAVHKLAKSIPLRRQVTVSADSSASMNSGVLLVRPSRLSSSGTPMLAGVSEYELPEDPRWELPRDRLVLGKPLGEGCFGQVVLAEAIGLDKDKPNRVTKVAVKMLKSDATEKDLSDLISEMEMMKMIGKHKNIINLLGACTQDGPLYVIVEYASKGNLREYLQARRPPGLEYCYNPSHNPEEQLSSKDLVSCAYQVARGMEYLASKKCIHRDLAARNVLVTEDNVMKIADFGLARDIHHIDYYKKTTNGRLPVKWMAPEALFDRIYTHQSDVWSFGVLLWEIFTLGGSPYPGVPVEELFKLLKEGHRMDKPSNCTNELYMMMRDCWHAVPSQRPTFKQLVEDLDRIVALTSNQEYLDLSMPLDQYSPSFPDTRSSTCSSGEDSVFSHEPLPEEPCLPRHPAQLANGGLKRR

[2] = tested on: FGFR2 (human), P21802 [N549H]
Sequence of FGFR2 (human), P21802 [N549H] (P21802 whole entry N549H, looked up): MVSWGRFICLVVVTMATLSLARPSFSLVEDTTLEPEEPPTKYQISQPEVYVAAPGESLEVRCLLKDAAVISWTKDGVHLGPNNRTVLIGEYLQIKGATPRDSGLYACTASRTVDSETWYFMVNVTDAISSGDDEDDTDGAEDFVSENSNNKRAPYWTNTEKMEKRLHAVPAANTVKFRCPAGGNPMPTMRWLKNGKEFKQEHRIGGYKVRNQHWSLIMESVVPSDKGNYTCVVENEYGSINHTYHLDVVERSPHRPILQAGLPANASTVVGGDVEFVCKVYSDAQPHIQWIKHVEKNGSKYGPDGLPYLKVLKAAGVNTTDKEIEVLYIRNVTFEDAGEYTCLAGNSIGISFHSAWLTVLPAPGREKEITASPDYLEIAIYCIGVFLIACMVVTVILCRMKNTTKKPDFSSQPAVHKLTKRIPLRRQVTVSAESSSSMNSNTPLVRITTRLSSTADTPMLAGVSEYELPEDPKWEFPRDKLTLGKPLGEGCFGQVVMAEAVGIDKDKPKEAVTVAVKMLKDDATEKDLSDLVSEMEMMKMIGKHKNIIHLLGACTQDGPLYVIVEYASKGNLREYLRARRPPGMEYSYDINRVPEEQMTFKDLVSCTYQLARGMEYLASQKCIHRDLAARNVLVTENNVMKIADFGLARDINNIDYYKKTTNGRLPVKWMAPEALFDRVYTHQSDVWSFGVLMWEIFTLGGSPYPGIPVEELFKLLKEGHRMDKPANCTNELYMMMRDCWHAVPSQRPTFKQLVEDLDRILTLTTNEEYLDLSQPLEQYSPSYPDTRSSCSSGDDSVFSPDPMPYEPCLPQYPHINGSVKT

FGFR3 (human) = FGFR3 (human) (UniProt P22607)
[3] = tested on: FLT3 (human), P36888 [D835Y]
GSK3B (human) = GSK3B (human) (UniProt P49841)
Sequence of GSK3B (human) (P49841 whole entry, looked up): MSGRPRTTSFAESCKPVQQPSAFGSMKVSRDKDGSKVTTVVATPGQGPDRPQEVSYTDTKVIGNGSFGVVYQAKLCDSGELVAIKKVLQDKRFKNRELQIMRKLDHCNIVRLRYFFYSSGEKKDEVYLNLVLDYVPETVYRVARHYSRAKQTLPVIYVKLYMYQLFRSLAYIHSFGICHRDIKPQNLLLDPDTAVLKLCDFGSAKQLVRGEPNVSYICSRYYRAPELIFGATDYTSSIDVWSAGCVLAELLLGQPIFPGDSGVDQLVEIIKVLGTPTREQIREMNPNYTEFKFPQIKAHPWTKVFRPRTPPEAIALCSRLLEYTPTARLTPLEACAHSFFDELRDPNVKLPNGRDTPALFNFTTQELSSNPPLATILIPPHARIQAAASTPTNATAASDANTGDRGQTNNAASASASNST

IGF1R (human) = IGF1R (human) (UniProt P08069)
IKBKB (human) = IKBKB (human) (UniProt O14920)
[4] = tested on: KIT (human), P10721 [T670I]
Sequence of KIT (human), P10721 [T670I] (P10721 whole entry T670I, looked up): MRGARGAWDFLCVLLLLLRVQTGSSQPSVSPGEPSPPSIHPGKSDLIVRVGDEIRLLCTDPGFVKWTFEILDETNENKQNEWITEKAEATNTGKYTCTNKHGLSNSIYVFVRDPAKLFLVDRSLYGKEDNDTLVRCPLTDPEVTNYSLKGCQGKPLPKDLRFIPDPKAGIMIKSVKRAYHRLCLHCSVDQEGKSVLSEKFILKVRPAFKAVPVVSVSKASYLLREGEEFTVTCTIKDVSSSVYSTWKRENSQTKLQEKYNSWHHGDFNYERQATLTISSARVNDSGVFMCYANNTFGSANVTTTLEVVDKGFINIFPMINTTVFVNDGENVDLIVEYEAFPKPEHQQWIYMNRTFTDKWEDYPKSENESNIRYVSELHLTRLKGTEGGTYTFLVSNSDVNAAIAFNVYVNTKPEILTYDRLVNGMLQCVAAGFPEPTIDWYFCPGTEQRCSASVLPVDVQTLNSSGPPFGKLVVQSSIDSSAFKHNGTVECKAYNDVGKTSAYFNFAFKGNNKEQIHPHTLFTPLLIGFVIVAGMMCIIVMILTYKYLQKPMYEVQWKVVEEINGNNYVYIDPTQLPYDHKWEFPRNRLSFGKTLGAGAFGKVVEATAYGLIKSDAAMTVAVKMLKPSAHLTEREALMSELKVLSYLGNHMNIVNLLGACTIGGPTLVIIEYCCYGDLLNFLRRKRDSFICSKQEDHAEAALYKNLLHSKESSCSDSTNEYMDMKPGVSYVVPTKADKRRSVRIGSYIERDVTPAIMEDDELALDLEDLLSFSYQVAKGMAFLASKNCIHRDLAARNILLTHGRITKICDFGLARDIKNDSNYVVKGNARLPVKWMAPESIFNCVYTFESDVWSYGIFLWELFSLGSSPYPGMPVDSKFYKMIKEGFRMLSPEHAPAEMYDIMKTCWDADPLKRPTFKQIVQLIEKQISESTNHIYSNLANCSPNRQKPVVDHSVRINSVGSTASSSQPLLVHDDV

LCK (human) = LCK (human) (UniProt P06239)
Sequence of LCK (human) (P06239 whole entry, looked up): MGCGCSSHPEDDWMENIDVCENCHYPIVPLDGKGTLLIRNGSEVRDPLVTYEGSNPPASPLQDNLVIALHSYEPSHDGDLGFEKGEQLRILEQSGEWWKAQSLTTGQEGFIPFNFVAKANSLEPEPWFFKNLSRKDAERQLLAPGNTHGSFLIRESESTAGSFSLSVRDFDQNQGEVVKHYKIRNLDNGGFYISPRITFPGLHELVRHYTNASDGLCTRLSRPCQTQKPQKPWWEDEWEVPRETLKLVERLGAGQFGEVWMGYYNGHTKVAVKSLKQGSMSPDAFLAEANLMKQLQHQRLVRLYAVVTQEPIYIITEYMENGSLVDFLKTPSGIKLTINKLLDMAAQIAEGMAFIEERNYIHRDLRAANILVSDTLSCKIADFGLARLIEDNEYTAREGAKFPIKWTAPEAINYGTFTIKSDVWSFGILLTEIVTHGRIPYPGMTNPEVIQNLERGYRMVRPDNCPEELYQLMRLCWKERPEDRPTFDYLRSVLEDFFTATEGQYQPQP

LYN (human) = LYN (human) (UniProt P07948)
MAPK12 (human) = MAPK12 (human) (UniProt P53778)
MAPK13 (human) = MAPK13 (human) (UniProt O15264)
MAPKAPK3 (human) = MAPKAPK3 (human) (UniProt Q16644)
Sequence of MAPKAPK3 (human) (Q16644 whole entry, looked up): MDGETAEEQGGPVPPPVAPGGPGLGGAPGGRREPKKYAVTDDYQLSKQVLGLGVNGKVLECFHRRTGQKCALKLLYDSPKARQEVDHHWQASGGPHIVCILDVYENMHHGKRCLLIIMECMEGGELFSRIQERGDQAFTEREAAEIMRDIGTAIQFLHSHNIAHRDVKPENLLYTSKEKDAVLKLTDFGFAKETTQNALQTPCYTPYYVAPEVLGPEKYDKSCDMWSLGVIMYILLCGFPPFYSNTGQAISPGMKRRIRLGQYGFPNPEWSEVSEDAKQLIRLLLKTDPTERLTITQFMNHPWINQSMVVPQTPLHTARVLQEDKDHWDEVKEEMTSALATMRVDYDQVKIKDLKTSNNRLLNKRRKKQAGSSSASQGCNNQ

MARK2 (human) = MARK2 (human) (UniProt Q7KZI7)
PAK2 (human) = PAK2 (human) (UniProt Q13177)
Sequence of PAK2 (human) (Q13177 whole entry, looked up): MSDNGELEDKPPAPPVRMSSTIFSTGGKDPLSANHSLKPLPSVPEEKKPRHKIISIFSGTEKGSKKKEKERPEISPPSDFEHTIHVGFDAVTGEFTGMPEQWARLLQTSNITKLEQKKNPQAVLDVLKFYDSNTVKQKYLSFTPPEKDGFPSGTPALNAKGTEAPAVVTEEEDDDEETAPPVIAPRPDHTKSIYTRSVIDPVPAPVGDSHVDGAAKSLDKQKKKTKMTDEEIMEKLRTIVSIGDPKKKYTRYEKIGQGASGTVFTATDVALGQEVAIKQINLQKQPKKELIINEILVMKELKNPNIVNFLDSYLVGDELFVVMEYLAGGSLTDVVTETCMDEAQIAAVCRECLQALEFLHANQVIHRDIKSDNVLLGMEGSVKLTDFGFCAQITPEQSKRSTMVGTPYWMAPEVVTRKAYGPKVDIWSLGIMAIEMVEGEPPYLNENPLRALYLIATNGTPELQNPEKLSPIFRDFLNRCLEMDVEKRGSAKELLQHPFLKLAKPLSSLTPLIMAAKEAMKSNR

PASK (human) = PASK (human) (UniProt Q96RG2)
PHKG2 (human) = PHKG2 (human) (UniProt P15735)
PRKCA (human) = PRKCA (human) (UniProt P17252)
PRKCD (human) = PRKCD (human) (UniProt Q05655)
PRKCG (human) = PRKCG (human) (UniProt P05129)
PRKD1 (human) = PRKD1 (human) (UniProt Q15139)
PRKD3 (human) = PRKD3 (human) (UniProt O94806)
ROCK1 (human) = ROCK1 (human) (UniProt Q13464)
SGK2 (human) = SGK2 (human) (UniProt Q9HBY8)
TSSK1B (human) = TSSK1B (human) (UniProt Q9BXA7)
TSSK2 (human) = TSSK2 (human) (UniProt Q96PF2)
TXK (human) = TXK (human) (UniProt P42681)
Sequence of TXK (human) (P42681 whole entry, looked up): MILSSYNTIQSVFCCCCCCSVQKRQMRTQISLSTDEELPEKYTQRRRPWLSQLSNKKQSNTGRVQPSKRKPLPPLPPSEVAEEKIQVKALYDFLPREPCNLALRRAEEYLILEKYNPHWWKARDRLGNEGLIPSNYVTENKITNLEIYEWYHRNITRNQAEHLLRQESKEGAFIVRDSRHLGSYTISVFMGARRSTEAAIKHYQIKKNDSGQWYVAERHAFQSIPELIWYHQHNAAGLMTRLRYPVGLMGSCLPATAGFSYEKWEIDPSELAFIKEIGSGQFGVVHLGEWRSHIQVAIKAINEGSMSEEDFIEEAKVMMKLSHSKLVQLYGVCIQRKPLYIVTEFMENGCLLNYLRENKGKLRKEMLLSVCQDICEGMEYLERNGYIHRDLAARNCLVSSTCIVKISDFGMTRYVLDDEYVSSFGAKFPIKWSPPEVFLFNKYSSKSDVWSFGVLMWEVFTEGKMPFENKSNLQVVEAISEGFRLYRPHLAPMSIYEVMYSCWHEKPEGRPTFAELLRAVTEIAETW

inhibition (ABL2 (human); compound 0.1 µM): -2.4%
inhibition (ABL2 (human); compound 1.0 µM): 18%
inhibition (CDK2 (human); compound 0.1 µM): 3.1%
inhibition (CDK2 (human); compound 1.0 µM): 4.8%
inhibition (CDK5 CDK5R1 p25 (human); compound 0.1 µM): -5.4%
inhibition (CDK5 CDK5R1 p25 (human); compound 1.0 µM): 11.9%
inhibition (CLK2 (human); compound 0.1 µM): 3.2%
inhibition (CLK2 (human); compound 1.0 µM): 16.8%
inhibition (CSNK1G3 (human); compound 0.1 µM): 9.7%
inhibition (CSNK1G3 (human); compound 1.0 µM): 6.5%
inhibition (DYRK1A (human); compound 0.1 µM): 7.9%
inhibition (DYRK1A (human); compound 1.0 µM): 40.1%
inhibition ([1]; compound 0.1 µM): 6.2%
inhibition ([1]; compound 1.0 µM): 2.9%
inhibition (FGFR1 (human); compound 0.1 µM): -11.4%
inhibition (FGFR1 (human); compound 1.0 µM): 26.7%
inhibition ([2]; compound 0.1 µM): 16%
inhibition ([2]; compound 1.0 µM): 57.6%
inhibition (FGFR3 (human); compound 0.1 µM): 26.3%
inhibition (FGFR3 (human); compound 1.0 µM): 81%
inhibition ([3]; compound 0.1 µM): 49.8%
inhibition ([3]; compound 1.0 µM): 86.5%
inhibition (GSK3B (human); compound 0.1 µM): -6.8%
inhibition (GSK3B (human); compound 1.0 µM): 4.8%
inhibition (IGF1R (human); compound 0.1 µM): -12.2%
inhibition (IGF1R (human); compound 1.0 µM): -0.8%
inhibition (IKBKB (human); compound 0.1 µM): 10%
inhibition (IKBKB (human); compound 1.0 µM): 18.6%
inhibition ([4]; compound 0.1 µM): 0.2%
inhibition ([4]; compound 1.0 µM): 21.4%
inhibition (LCK (human); compound 0.1 µM): -3.5%
inhibition (LCK (human); compound 1.0 µM): 11.3%
inhibition (LYN (human); compound 0.1 µM): 2.5%
inhibition (LYN (human); compound 1.0 µM): 25.1%
inhibition (MAPK12 (human); compound 0.1 µM): -6%
inhibition (MAPK12 (human); compound 1.0 µM): 0.4%
inhibition (MAPK13 (human); compound 0.1 µM): -0.3%
inhibition (MAPK13 (human); compound 1.0 µM): 9.8%
inhibition (MAPKAPK3 (human); compound 0.1 µM): -0.1%
inhibition (MAPKAPK3 (human); compound 1.0 µM): -2.3%
inhibition (MARK2 (human); compound 0.1 µM): -3.7%
inhibition (MARK2 (human); compound 1.0 µM): 12.6%
inhibition (PAK2 (human); compound 0.1 µM): 10.2%
inhibition (PAK2 (human); compound 1.0 µM): 5.3%
inhibition (PASK (human); compound 0.1 µM): -10.1%
inhibition (PASK (human); compound 1.0 µM): 5.9%
inhibition (PHKG2 (human); compound 0.1 µM): 17.8%
inhibition (PHKG2 (human); compound 1.0 µM): 12.7%
inhibition (PRKCA (human); compound 0.1 µM): 0.1%
inhibition (PRKCA (human); compound 1.0 µM): -10.6%
inhibition (PRKCD (human); compound 0.1 µM): -0.8%
inhibition (PRKCD (human); compound 1.0 µM): 2.2%
inhibition (PRKCG (human); compound 0.1 µM): -8.6%
inhibition (PRKCG (human); compound 1.0 µM): -6.9%
inhibition (PRKD1 (human); compound 0.1 µM): -0.4%
inhibition (PRKD1 (human); compound 1.0 µM): 1.9%
inhibition (PRKD3 (human); compound 0.1 µM): 8%
inhibition (PRKD3 (human); compound 1.0 µM): 9.4%
inhibition (ROCK1 (human); compound 0.1 µM): 14.4%
inhibition (ROCK1 (human); compound 1.0 µM): 1.7%
inhibition (SGK2 (human); compound 0.1 µM): 1.8%
inhibition (SGK2 (human); compound 1.0 µM): 3.7%
inhibition (TSSK1B (human); compound 0.1 µM): -4.8%
inhibition (TSSK1B (human); compound 1.0 µM): 8.1%
inhibition (TSSK2 (human); compound 0.1 µM): -3.3%
inhibition (TSSK2 (human); compound 1.0 µM): -0.8%
inhibition (TXK (human); compound 0.1 µM): 0.6%
inhibition (TXK (human); compound 1.0 µM): 19%
Compound: CN(c1ccc2ccc3ncc(-c4cnn(C)c4)cc3c(=O)c2c1)S(=O)(=O)NCc1ccccn1

inhibition (ABL2 (human); compound 0.1 µM): 2.6%
inhibition (ABL2 (human); compound 1.0 µM): -3.4%
inhibition (CDK2 (human); compound 0.1 µM): -10%
inhibition (CDK2 (human); compound 1.0 µM): -6.6%
inhibition (CDK5 CDK5R1 p25 (human); compound 0.1 µM): 2.2%
inhibition (CDK5 CDK5R1 p25 (human); compound 1.0 µM): 0.3%
inhibition (CLK2 (human); compound 0.1 µM): 3.4%
inhibition (CLK2 (human); compound 1.0 µM): 4.1%
inhibition (CSNK1G3 (human); compound 0.1 µM): 0.3%
inhibition (CSNK1G3 (human); compound 1.0 µM): 15.2%
inhibition (DYRK1A (human); compound 0.1 µM): 5.6%
inhibition (DYRK1A (human); compound 1.0 µM): -6.7%
inhibition ([1]; compound 0.1 µM): -0.8%
inhibition ([1]; compound 1.0 µM): -3.6%
inhibition (FGFR1 (human); compound 0.1 µM): 1.5%
inhibition (FGFR1 (human); compound 1.0 µM): -7.9%
inhibition ([2]; compound 0.1 µM): -8.4%
inhibition ([2]; compound 1.0 µM): 0.9%
inhibition (FGFR3 (human); compound 0.1 µM): 0.5%
inhibition (FGFR3 (human); compound 1.0 µM): 4.9%
inhibition ([3]; compound 0.1 µM): -1%
inhibition ([3]; compound 1.0 µM): 3.4%
inhibition (GSK3B (human); compound 0.1 µM): -0.6%
inhibition (GSK3B (human); compound 1.0 µM): -3.3%
inhibition (IGF1R (human); compound 0.1 µM): -3%
inhibition (IGF1R (human); compound 1.0 µM): 1.3%
inhibition (IKBKB (human); compound 0.1 µM): 1.2%
inhibition (IKBKB (human); compound 1.0 µM): -3.1%
inhibition ([4]; compound 0.1 µM): -3.3%
inhibition ([4]; compound 1.0 µM): -4.9%
inhibition (LCK (human); compound 0.1 µM): -3.4%
inhibition (LCK (human); compound 1.0 µM): -2.9%
inhibition (LYN (human); compound 0.1 µM): 3.5%
inhibition (LYN (human); compound 1.0 µM): -3.2%
inhibition (MAPK12 (human); compound 0.1 µM): 6.1%
inhibition (MAPK12 (human); compound 1.0 µM): 8.3%
inhibition (MAPK13 (human); compound 0.1 µM): -1.8%
inhibition (MAPK13 (human); compound 1.0 µM): 3.9%
inhibition (MAPKAPK3 (human); compound 0.1 µM): -0.3%
inhibition (MAPKAPK3 (human); compound 1.0 µM): 0.5%
inhibition (MARK2 (human); compound 0.1 µM): -4.6%
inhibition (MARK2 (human); compound 1.0 µM): -1.8%
inhibition (PAK2 (human); compound 0.1 µM): 2.1%
inhibition (PAK2 (human); compound 1.0 µM): 13.1%
inhibition (PASK (human); compound 0.1 µM): 6.7%
inhibition (PASK (human); compound 1.0 µM): 3.2%
inhibition (PHKG2 (human); compound 0.1 µM): 1%
inhibition (PHKG2 (human); compound 1.0 µM): -4.4%
inhibition (PRKCA (human); compound 0.1 µM): -9.4%
inhibition (PRKCA (human); compound 1.0 µM): 15.8%
inhibition (PRKCD (human); compound 0.1 µM): 0.7%
inhibition (PRKCD (human); compound 1.0 µM): -5.4%
inhibition (PRKCG (human); compound 0.1 µM): 10.9%
inhibition (PRKCG (human); compound 1.0 µM): -15%
inhibition (PRKD1 (human); compound 0.1 µM): 7%
inhibition (PRKD1 (human); compound 1.0 µM): 11%
inhibition (PRKD3 (human); compound 0.1 µM): -21.2%
inhibition (PRKD3 (human); compound 1.0 µM): 2.2%
inhibition (ROCK1 (human); compound 0.1 µM): 4.2%
inhibition (ROCK1 (human); compound 1.0 µM): 8.2%
inhibition (SGK2 (human); compound 0.1 µM): -1.4%
inhibition (SGK2 (human); compound 1.0 µM): -7.4%
inhibition (TSSK1B (human); compound 0.1 µM): 5.4%
inhibition (TSSK1B (human); compound 1.0 µM): -1.6%
inhibition (TSSK2 (human); compound 0.1 µM): -2.3%
inhibition (TSSK2 (human); compound 1.0 µM): 1.3%
inhibition (TXK (human); compound 0.1 µM): -5.1%
inhibition (TXK (human); compound 1.0 µM): -9.7%
Compound: O=C(CCc1ccc2ccc3ncc(C4CCNCC4)cc3c(=O)c2c1)NCc1ccccn1

inhibition (ABL2 (human); compound 0.01 µM): 4.8%
inhibition (ABL2 (human); compound 0.1 µM): 3.1%
inhibition (CDK2 (human); compound 0.01 µM): -0.9%
inhibition (CDK2 (human); compound 0.1 µM): -0.9%
inhibition (DYRK1A (human); compound 0.01 µM): 7.6%
inhibition (DYRK1A (human); compound 0.1 µM): -4.3%
inhibition (FGFR1 (human); compound 0.01 µM): 3.8%
inhibition (FGFR1 (human); compound 0.1 µM): 10.7%
inhibition ([2]; compound 0.01 µM): -4.6%
inhibition ([2]; compound 0.1 µM): 3.3%
inhibition (FGFR3 (human); compound 0.01 µM): -38.6%
inhibition (FGFR3 (human); compound 0.1 µM): -12.3%
inhibition ([3]; compound 0.01 µM): 2.3%
inhibition ([3]; compound 0.1 µM): 16.7%
inhibition (GSK3B (human); compound 0.01 µM): -1.8%
inhibition (GSK3B (human); compound 0.1 µM): -1%
inhibition (IGF1R (human); compound 0.01 µM): 5%
inhibition (IGF1R (human); compound 0.1 µM): -2.7%
inhibition (IKBKB (human); compound 0.01 µM): -0.2%
inhibition (IKBKB (human); compound 0.1 µM): 0.6%
inhibition (LCK (human); compound 0.01 µM): -2.9%
inhibition (LCK (human); compound 0.1 µM): 3.3%
inhibition (LYN (human); compound 0.01 µM): -6%
inhibition (LYN (human); compound 0.1 µM): -9.2%
inhibition (MAPK12 (human); compound 0.01 µM): -3.3%
inhibition (MAPK12 (human); compound 0.1 µM): -4.6%
inhibition (MAPK13 (human); compound 0.01 µM): 5.5%
inhibition (MAPK13 (human); compound 0.1 µM): -5.7%
inhibition (MAPKAPK3 (human); compound 0.01 µM): -0.3%
inhibition (MAPKAPK3 (human); compound 0.1 µM): -0.3%
inhibition (MARK2 (human); compound 0.01 µM): -7%
inhibition (MARK2 (human); compound 0.1 µM): -10%
inhibition (PAK2 (human); compound 0.01 µM): 0.1%
inhibition (PAK2 (human); compound 0.1 µM): 3.6%
inhibition (PRKCA (human); compound 0.01 µM): 0.2%
inhibition (PRKCA (human); compound 0.1 µM): 1.3%
inhibition (PRKCD (human); compound 0.01 µM): 11%
inhibition (PRKCD (human); compound 0.1 µM): 2.4%
inhibition (PRKCG (human); compound 0.01 µM): -3.2%
inhibition (PRKCG (human); compound 0.1 µM): 1.8%
inhibition (PRKD1 (human); compound 0.01 µM): -2.8%
inhibition (PRKD1 (human); compound 0.1 µM): -4.1%
inhibition (PRKD3 (human); compound 0.01 µM): 3.2%
inhibition (PRKD3 (human); compound 0.1 µM): -5.2%
inhibition (SGK2 (human); compound 0.01 µM): -4.2%
inhibition (SGK2 (human); compound 0.1 µM): 4.7%
inhibition (TSSK1B (human); compound 0.01 µM): 7.3%
inhibition (TSSK1B (human); compound 0.1 µM): -5.2%
inhibition (TSSK2 (human); compound 0.01 µM): 55.4%
inhibition (TSSK2 (human); compound 0.1 µM): -6.2%
Compound: O=c1c2cc(CS(=O)(=O)NCc3ccccn3)ccc2ccc2ncc(C3CCNCC3)cc12
